Experimental findings from US5126341A, “Anti-inflammatory 1,8-naphthyridin-2-one derivatives” (Kyowa Hakko Kogyo Co., Ltd., priority 1990, dated 1992) are described below.

The test system of one series is male dd-mice. The following applies: mouse, in vivo, 10080 min; for Acute toxicity (MLD, Minimum Lethal Dose) i.p.: ip; for Acute toxicity (MLD, Minimum Lethal Dose) p.o.: po. Here is the method:
The test compounds were orally or intraperitoneally administered to male dd-mice weighing 20 to 25 g. MLD (Minimum Lethal Dose) was determined by observing the mortality for seven days after the administration.

Series [1] has as its system arachidonic acid-induced paw edema. In words: Arachidonic acid-induced paw edema. The following applies: rat, 100 mg/kg p.o., 1 hour before 0.5% arachidonic acid; paw volume one hour after injection. Format: in vivo, male Wistar rats. The protocol: c) Arachidonic acid-induced paw edema
The experiment was carried out in the same manner as in the carrageenin-induced paw edema test except that 0.5% arachidonic acid was used in place of 1% carrageenin and the right hind paw volume was measured one hour after the injection of the edema-inducing substance instead of 3 hours. The swelling rate and the suppression rate were calculated by equation 1 and equation 2, respectively.

The test system of series [2] is zymosan-induced paw edema. As to the kind of experiment: Effect on zymosan-induced paw edema. The class given is in vivo, male Wistar rats. Conditions: rat, 100 mg/kg p.o., 1 hour before 1% zymosan; paw volume 4 hours after injection. Here is the method: b) Effect on zymosan-induced paw edema
The experiment was carried out in the same manner as in the carrageenin-induced paw edema test except that 1% zymosan (Zymosan A®; Sigma Chemical Co.) was used in place of 1% carrageenin and the right hind paw volume was measured 4 hours after the injection of the edema-inducing substance instead of 3 hours. The swelling rate and the suppression rate were calculated by equation 1 and equation 2, respectively.

Series [3] has as its system carrageenin-induced paw edema. As to the kind of experiment: Effect on carrageenin-induced paw edema. The class given is in vivo, male Wistar rats. The following applies: po; rat, 100 mg/kg p.o., 1 hour before 1% carrageenin; paw volume 3 hours after injection; read-out: Suppression rate for paw swelling, (a) carrageenin-induced edema. The protocol:
a) Effect on carrageenin-induced paw edema
Male Wistar rats weighing 150 to 160 g (n=3-5) were used in the experiment. After the right hind paw volume was measured with the plethysmograph (TK-101; Unicom Co., Ltd.), the test compound (100 mg/kg) was orally administered. After one hour, 0.1 ml of 1 % carrageenin (λ-carrageenin; PICNIN-A®, Zushi Kagaku Co., Ltd.) was subcutaneously injected into the right hind paw footpad. Three hours after the injection of carrageenin, the right hind paw volume was measured and the swelling rate was determined by the following equation 1. [formula]
Vt: the right hind paw volume measured 3 hours after the injection of carrageenin
Vo: the right hind paw volume measured prior to the injection of carrageenin
The suppression rate was calculated by the following equation 2. [formula]
Swt: the swelling rate of the group administered with the test compound
Swc: the swelling rate of the control group administered with no test compound
On the technique in general: Carrageenan injected into the paw causes an acute inflammation.

The subject of series [4] is Type III allergic reaction-induced pleurisy. In words: Effect on Type III allergic reaction-induced pleurisy. The class given is in vivo, male Wistar rats. The following applies: po, 4.5 h, rat, 100 mg/kg p.o., four and a half hours after induction of pleurisy. Here is the method:
d) Effect on Type III allergic reaction-induced pleurisy
IgG was purified from rabbit anti-OA serum prepared in advance by the method of Koda et al. [Folia Pharmacol., Japon 66, 237, (1970)] in the following manner.
A saturated solution of ammonium sulfate (half volume of the serum) was added to the anti-OA serum, and the mixture was left for one hour at 4° C. The precipitate was taken by centrifugation (3,000 rpm, 30 min, 4° C.) and dissolved in phosphate buffered saline of Dulbecco. Then, ammonium sulfate fractionation was carried out three times in the same manner as above, whereby a purified IgG fraction was obtained.
Male Wistar rats weighing 225-250 g were pre-bred for several days and fasted overnight prior to the experiment The test compound (100 mg/kg) was orally administered to the animals, and after 30 minutes, IgG of rabbit anti-OA (0.2 ml, 5 mg protein/ml) was injected into the pleural cavity of the animals under anesthesia with ether. Thirty minutes after the injection of IgG, OA (albumin egg grade III; Sigma Chemical Co.) was intravenously injected into the animals as an inducer of pleurisy. After two hours, Evans Blue (25 mg/kg) was intravenously injected, and four and a half hours after the induction of pleurisy, the animals were killed by bleeding.
Then, an exudate in the pleural cavity was obtained, and the volume of the exudate was measured. The pleural cavity was rinsed with 5 ml of physiological saline and the rinsings were added to the exudate. The number of infiltrated cells in the mixture was counted and the volume of the dye in the mixture was determined by the absorption at 625 nm [Agent Actions., 25, 326 (1988)]. The suppression rates for the volume of the exudate, the number of infiltrated cells and the volume of the dye in the pleural cavity were calculated by the following equation 3. [formula]
S.V: the value obtained with the group administered with the test compound and in which pleurisy is induced
N.V: the value obtained with the group in which pleurisy is not induced
P.V: the value obtained with the group administered with no test compound and in which pleurisy is induced

Setting [5] is: Evans Blue 25 mg/kg i.v., absorption at 625 nm, read-out: Suppression rate, volume of dye in the exudate.
Setting [6] is: read-out: Suppression rate, number of infiltrated cells in the exudate.
Where [7] appears, read: read-out: Suppression rate, volume of exudate.

Read-outs that look alike come from different tables or passages of the source.

`O=C(Nc1cccnc1)c1c(O)c2cccnc2n(-c2ccccc2)c1=O` [Compound 4, 4-Hydroxy-2-oxo-1-phenyl-N-(3-pyridyl)-1H-1,8-naphthyridine-3-carboxamide]: in the series on male dd-mice, the “Acute toxicity (MLD, Minimum Lethal Dose) i.p.” value is given as above 100 mg/kg. Moreover, the “Acute toxicity (MLD, Minimum Lethal Dose) p.o.” value in the series with male dd-mice is above 300 mg/kg. Besides, the “Suppression rate for paw swelling, (c) arachidonic acid-induced edema” value in series [1] was 34.9%. Further, the “Suppression rate for paw swelling, (b) zymosan-induced edema” value in series [2] is 37.8%. Moreover, the inhibition in vivo at 100 mg/kg worked out at 40% in series [3], 54.4% in series [4] (setting [5]), 30.5% in series [4] (setting [6]) and 75.3% in series [4] (setting [7]).
As to `O=C(Nc1ccncc1)c1c(O)c2cccnc2n(-c2ccccc2)c1=O` [Compound 5, 4-Hydroxy-2-oxo-1-phenyl-N-(4-pyridyl)-1H-1,8-naphthyridine-3-carboxamide], the “Acute toxicity (MLD, Minimum Lethal Dose) i.p.” value in the series with male dd-mice is listed as above 100 mg/kg. Besides, the “Acute toxicity (MLD, Minimum Lethal Dose) p.o.” value in the series with male dd-mice is reported as 300 mg/kg. Besides, the “Suppression rate for paw swelling, (c) arachidonic acid-induced edema” value in series [1] worked out at 48.0%. Besides, in series [2], the “Suppression rate for paw swelling, (b) zymosan-induced edema” value was 38.4%. In addition, the inhibition in vivo at 100 mg/kg in series [3] was 38.5%; in series [4] (setting [5]), 66.5%; in series [4] (setting [6]), 58.6%; in series [4] (setting [7]), 100%.
Regarding `O=C(NCc1ccncc1)c1c(O)c2cccnc2n(-c2ccccc2)c1=O` [Compound 28, 4-Hydroxy-2-oxo-1-phenyl-N-(4-pyridylmethyl)-1H-1,8-naphthyridine-3-carboxamide], in the series on male dd-mice, the “Acute toxicity (MLD, Minimum Lethal Dose) i.p.” value is on record as above 100 mg/kg and the “Acute toxicity (MLD, Minimum Lethal Dose) p.o.” value is listed as above 300 mg/kg. For the same compound, in series [1], the “Suppression rate for paw swelling, (c) arachidonic acid-induced edema” value came to 41.6%. Besides, in series [3], the inhibition in vivo at 100 mg/kg is 27.3%.
